Data set [1] deals with SARS-CoV-2 stock strain NL/2020. In words: Antiviral activity in A549-ACE2 cells using viral antigen quantitation (SARS-CoV-2 N protein immunofluorescence). It counts as cell-based. The note with it: Severe acute respiratory syndrome coronavirus 2, MOI 0.005, 48 h; for pEC50: concentration reducing SARS-CoV-2 infection efficiency by 50% vs vehicle; for EC90: concentration reducing SARS-CoV-2 infection efficiency by 90% vs vehicle.

The nature of data set [2]: in vitro. The note with it: human.

In patent EP4548976A1, “ANTIVIRAL COMPOUNDS AND COMPOSITIONS THEREFROM” (Consejo Superior De Investigaciones Científicas, priority 2023, dated 2025) one finds EC50, EC90 and CC50 data, which are given here for 19 compounds.

As a reminder, the pEC50 is the EC50 on a negative log10 scale, so that one unit is a factor of ten. A lower pEC50 goes with a high EC50. A word on the EC90: it is the concentration at which the effect reaches the 90% level. The low end stands for an effect from little substance, the high end for a need for much substance.

pEC50: −log10 of the molar value.

In data set [1], `COC(=O)c1cc(-c2ccc3c(c2)OCCO3)ccc1NC(C#N)[C@@H](Cc1c[nH]c2ccccc12)NC(=O)OC(C)(C)C` (mixture of isomers) [Example 28, Methyl 2-(((1RS,2R)-2-((tert-butoxycarbonyl)amino)-1-cyano-3-(1H-indol-3-yl)propyl)amino)-5-(2,3-dihydrobenzo[b][1,4]dioxin-6-yl)benzoate] gave a pEC50 of 5.15 and a concentration for an effect of 90% (EC90) of 30 µM. Further, in data set [2], the CC50 was more than 50 µM.

In data set [1], `C#Cc1ccc(-c2cccc3[nH]cc(C[C@H](NC(=O)OC(C)(C)C)C(C#N)Nc4ccc(-c5ccc(N6CCOCC6)cc5)cc4C(=O)OC)c23)cc1` (mixture of isomers) [Example 6, Methyl 4-(((1RS,2S)-2-((tert-butoxycarbonyl)amino)-1-cyano-3-(4-(4-ethynylphenyl)-1H-indol-3-yl)propyl)amino)-4'-morpholino-[1,1'-biphenyl]-3-carboxylate] gave a pEC50 of 5.10 and an EC90 of 20 µM. The compound further yielded a CC50 in data set [2] of more than 50 µM.

As for `COC(=O)c1cc(-c2cc3ccccc3o2)ccc1NC(C#N)[C@H](Cc1c[nH]c2ccccc12)NC(=O)OC(C)(C)C` (mixture of isomers) [Example 12, Methyl 5-(benzofuran-2-yl)-2-(((1RS,2S)-2-((tert-butoxycarbonyl)amino)-1-cyano-3-(1H-indol-3-yl)propyl)amino)benzoate], in data set [1], the pEC50 was 5.73 and it took 5 µM to reach the 90% level (EC90). Moreover, the CC50 in data set [2] is more than 50 µM.

As to `COC(=O)c1cc(-c2ccc(N3CCOCC3)cc2)ccc1NC(C#N)[C@H](Cc1c[nH]c2cccc(-c3ccc(-c4cn(CCCOCCOCCOCCNC(=O)CCC[C@H]5SC[C@H]6NC(=O)N[C@H]65)nn4)cc3)c12)NC(=O)OC(C)(C)C` (mixture of isomers) [Example 20, Methyl 4-(((1RS,2S)-2-((tert-butoxycarbonyl)amino)-1-cyano-3-(4-(4-(1-(14-oxo-17-((3aR,4R,6aS)-2-oxohexahydro-1H-thieno[3,4-d]imidazol-4-yl)-4,7,10-trioxa-13-azaheptadecyl)-1H-1,2,3-triazol-4-yl)phenyl)-1H-indol-3-yl)propyl)amino)-4'-morpholino-[1,1'-biphenyl]-3-carboxylate], in data set [1], the pEC50 is 5.70 and the EC90 turned out to be 50 µM. In addition, the CC50 in data set [2] was more than 50 µM.

Take `COC(=O)c1cc(-c2ccc(CN3CCOCC3)cc2)ccc1NC(C#N)[C@H](Cc1c[nH]c2ccccc12)NC(=O)OC(C)(C)C` (mixture of isomers) [Example 10, Methyl 4-(((1RS,2S)-2-((tert-butoxycarbonyl)amino)-1-cyano-3-(1H-indol-3-yl)propyl)amino)-4'-(morpholinomethyl)-[1,1'-biphenyl]-3-carboxylate]: in data set [1], the negative-log EC50 (pEC50) is 6.05 and the EC90 was determined as 2 µM. In data set [2], the CC50 was more than 50 µM.

Take `COC(=O)c1cc(C2=CCN(C(=O)OC(C)(C)C)CC2)ccc1NC(C#N)[C@H](Cc1c[nH]c2ccccc12)NC(=O)OC(C)(C)C` (mixture of isomers) [Example 14, tert-Butyl 4-(4-(((1RS,2S)-2-((tert-butoxycarbonyl)amino)-1-cyano-3-(1H-indol-3-yl)propyl)amino)-3-(methoxycarbonyl)phenyl)-3,6-dihydropyridine-1(2H)-carboxylate]: in data set [1], the pEC50 was 5.15 and the EC90 amounted to 16 µM. In data set [2], this compound registered a CC50 of more than 50 µM.

In data set [1], `CC(C)(C)OC(=O)N[C@H](Cc1c[nH]c2ccccc12)C(C#N)Nc1ccc(Br)cc1C(=O)c1ccccc1` (mixture of isomers) [Example 26, tert-Butyl ((1RS,2R)-1-((2-benzoyl-4-bromophenyl)amino)-1-cyano-3-(1H-indol-3-yl)propan-2-yl)carbamate] gave a negative logarithm of the EC50 (pEC50) of 5.22 and a 90% effect concentration (EC90) of 28 µM. The CC50 in data set [2] was 50 µM.

Consider `COC(=O)c1cc(-c2ccc(N3CCOCC3)cc2)ccc1NC(C#N)[C@H](Cc1c[nH]c2c(Br)cccc12)NC(=O)OC(C)(C)C` (mixture of isomers) [Example 3, Methyl 4-(((1RS,2S)-3-(7-bromo-1H-indol-3-yl)-2-((tert-butoxycarbonyl)amino)-1-cyanopropyl)amino)-4'-morpholino-[1,1'-biphenyl]-3-carboxylate], for which, in data set [1], the pEC50 is 5.46 and the concentration for an effect of 90% (EC90) turned out to be 8 µM. Further, the CC50 in data set [2] is more than 50 µM.

In data set [1], `COC(=O)c1cc(-c2ccc3[nH]ncc3c2)ccc1NC(C#N)[C@H](Cc1c[nH]c2ccccc12)NC(=O)OC(C)(C)C` (mixture of isomers) [Example 16, Methyl 2-(((1RS,2S)-2-((tert-butoxycarbonyl)amino)-1-cyano-3-(1H-indol-3-yl)propyl)amino)-5-(1H-indazol-5-yl)benzoate] gave a pEC50 of 5.22 and an EC90 of 9 µM. The compound further gave a CC50 in data set [2] of 10 µM.

As to `COC(=O)c1cc(-c2ccc(C(=O)N3CCOCC3)cc2)ccc1NC(C#N)[C@H](Cc1c[nH]c2ccccc12)NC(=O)OC(C)(C)C` (mixture of isomers) [Example 8, Methyl 4-(((1RS,2S)-2-((tert-butoxycarbonyl)amino)-1-cyano-3-(1H-indol-3-yl)propyl)amino)-4'-(morpholine-4-carbonyl)-[1,1'-biphenyl]-3-carboxylate], in data set [1], the pEC50 is 6.05 and the concentration for an effect of 90% (EC90) was 2 µM. In data set [2], this compound yielded a CC50 of more than 50 µM.

In data set [1], `COC(=O)c1cc(-c2ccnn2C2CCCCO2)ccc1NC(C#N)[C@H](Cc1c[nH]c2ccccc12)NC(=O)OC(C)(C)C` (mixture of isomers) [Example 23, Methyl 2-(((1RS,2S)-2-((tert-butoxycarbonyl)amino)-1-cyano-3-(1H-indol-3-yl)propyl)amino)-5-(1-(tetrahydro-2H-pyran-2-yl)-1H-pyrazol-5-yl)benzoate] gave a pEC50 of 5.40 and an EC90 of 8 µM. Also, the CC50 in data set [2] was found to be 50 µM.

`COC(=O)c1cc(-c2cc3ccccc3s2)ccc1NC(C#N)[C@H](Cc1c[nH]c2ccccc12)NC(=O)OC(C)(C)C` (mixture of isomers) [Example 13, Methyl 5-(benzo[b]thiophen-2-yl)-2-(((1RS,2S)-2-((tert-butoxycarbonyl)amino)-1-cyano-3-(1H-indol-3-yl)propyl)amino)benzoate]: in data set [1], the negative logarithm of the EC50 (pEC50) was 5.73 and the 90% effect concentration (EC90) was 5 µM. The compound also displayed a CC50 in data set [2] of 13 µM.

As for `COC(=O)c1cc(C2=CCCCC2)ccc1NC(C#N)[C@H](Cc1c[nH]c2ccccc12)NC(=O)OC(C)(C)C` (mixture of isomers) [Example 22, Methyl 4-(((1RS,2S)-2-((tert-butoxycarbonyl)amino)-1-cyano-3-(1H-indol-3-yl)propyl)amino)-2',3',4',5'-tetrahydro-[1,1'-biphenyl]-3-carboxylate], in data set [1], the pEC50 was 5.22 and the EC90 stood at 9 µM. The compound further showed a CC50 in data set [2] of 32 µM.

In data set [1], `COC(=O)c1cc(-c2c[nH]c3ncccc23)ccc1NC(C#N)[C@H](Cc1c[nH]c2ccccc12)NC(=O)OC(C)(C)C` (mixture of isomers) [Example 18, Methyl 2-(((1RS,2S)-2-((tert-butoxycarbonyl)amino)-1-cyano-3-(1H-indol-3-yl)propyl)amino)-5-(1H-pyrrolo[2,3-b]pyridin-3-yl)benzoate] had a pEC50 of 5.22 and an EC90 of 9 µM. In addition, the CC50 in data set [2] is 10 µM.

`COC(=O)c1cc(-c2ccc3cc[nH]c3c2)ccc1NC(C#N)[C@H](Cc1c[nH]c2ccccc12)NC(=O)OC(C)(C)C` (mixture of isomers) [Example 11, Methyl 2-(((1RS,2S)-2-((tert-butoxycarbonyl)amino)-1-cyano-3-(1H-indol-3-yl)propyl)amino)-5-(1H-indol-6-yl)benzoate]: in data set [1], the pEC50 was 5.40 and the concentration for an effect of 90% (EC90) worked out at 8 µM. Moreover, the CC50 in data set [2] amounted to 30 µM.

As for `COC(=O)c1cc(-c2ccc(N3CCOCC3)cc2)ccc1NC(C#N)[C@H](Cc1c[nH]c2ccc(Br)cc12)NC(=O)OC(C)(C)C` (mixture of isomers) [Example 1, Methyl 4-(((1RS,2S)-3-(5-bromo-1H-indol-3-yl)-2-((tert-butoxycarbonyl)amino)-1-cyanopropyl)amino)-4'-morpholino-[1,1'-biphenyl]-3-carboxylate], in data set [1], the pEC50 was 6.10 and the 90% effect level (EC90) was put at 6 µM. The CC50 in data set [2] is more than 50 µM.

For `CC(C)(C)OC(=O)N[C@@H](Cc1c[nH]c2ccccc12)C(C#N)Nc1ccccc1C(=O)N1CCCCCC1` (mixture of isomers) [Example 31, tert-Butyl ((1RS,2S)-1-((2-(azepane-1-carbonyl)phenyl)amino)-1-cyano-3-(1H-indol-3-yl)propan-2-yl)carbamate], in data set [1], the pEC50 is 5.10 and the EC90 was found to be 39 µM. This compound also gave a CC50 in data set [2] of 36 µM.

In data set [1], `COC(=O)c1cc(-c2ccc(N3CCOCC3)cc2)ccc1NC(C#N)[C@H](Cc1c[nH]c2cccc(Br)c12)NC(=O)OC(C)(C)C` (mixture of isomers) [Example 4, Methyl 4-(((1RS,2S)-3-(4-bromo-1H-indol-3-yl)-2-((tert-butoxycarbonyl)amino)-1-cyanopropyl)amino)-4'-morpholino-[1,1'-biphenyl]-3-carboxylate] gave a pEC50 of 5.70 and a concentration for an effect of 90% (EC90) of 7.5 µM. In data set [2], this compound gave a CC50 of more than 50 µM.

In data set [1], `COC(=O)c1cc(-c2ccc3[nH]cnc3c2)ccc1NC(C#N)[C@H](Cc1c[nH]c2ccccc12)NC(=O)OC(C)(C)C` (mixture of isomers) [Example 15, Methyl 5-(1H-benzo[d]imidazol-5-yl)-2-(((1RS,2S)-2-((tert-butoxycarbonyl)amino)-1-cyano-3-(1H-indol-3-yl)propyl)amino)benzoate] gave a negative-log EC50 (pEC50) of 6.00 and an EC90 of 4 µM. Moreover, in data set [2], the CC50 is 50 µM.
